Experimental data as given in patent US5840688A, “Eating suppressant peptides” (Research Corporation Technologies, Inc., priority 1995, dated 1998).
No end group written: not given here.

Assays:
animal = conditions: in vivo; cited from earlier work
male Sprague Dawley rats [1] = test: Feeding study: food intake after infusion into the third ventricle of 24 h fasted rats; format: in vivo, rat
Experimental: Animals used in vivo food intake studies were male Sprague Dawley rats weighing between 280 and 320 grams. The rats were housed in a room illuminated from 06:00 to 18:00 hours (twelve hour light-dark cycle) with a temperature maintained at 21 ±1° C. Both tap water and powdered laboratory chow (Laboratory chow #5001, Purina Mills, Inc.) were provided ad libitum to the rats.
Rats used in the study were surgically equipped with an infusion cannula in the third ventricle. Under sodium pentobarbital anesthesia (50 mg/kg ip), each rat was fixed in a stereotaxic apparatus, its skull was exposed, and two small screws were threaded into the skull to anchor the cannula. A three millimeter diameter hole was drilled in the skull on the midline six millimeters anterior to ear bar zero. […]
In the feeding study, food was removed twenty four hours before the experiment, but free access to water was allowed. […] After twenty four hours of fasting, each rat was re-fed at 13:00 hour, and powdered food consumption was measured at thirty minutes after the resumption of feeding. […]
Data from the feeding study were evaluated using one-way analysis of variance, and multiple comparisons were carried out using the method of least significant difference. […]

male Sprague Dawley rats [2] = conditions: cited from earlier work
[3] = apo A-IV appearing in mesenteric lymph after a lipid meal; cited from earlier work

Row | Molecule | food intake in animal studies (animal) | other results
1 | CSCC[C@H](NC(=O)[C@H](CC(C)C)NC(=O)[C@H](Cc1cnc[nH]1)NC(=O)CNC(=O)[C@@H](NC(=O)[C@H](C)NC(=O)[C@H](Cc1c[nH]c2ccccc12)NC(=O)[C@H](CCC(N)=O)NC(=O)[C@H](CC(N)=O)NC(=O)CNC(=O)[C@H](CC(C)C)NC(=O)[C@H](CCCN=C(N)N)NC(=O)[C@H](CCC(N)=O)NC(=O)[C@@H]1CCC(=O)N1)C(C)C)C(N)=O [bombesin] | decrease food intake | 
2 | EVTSDQVANVMWDYFTQL SNNAKEAVEQLQ (EVTSDQVANVMWDYFTQLSNNAKEAVEQLQ) [SEQ ID NO:1, 30-mer, first thirty amino acids of the mature rat apo A-IV] |  | inhibition of food intake (male Sprague Dawley rats [1]; synthetic peptide infused into third ventricle, doses 0.125-1.0 μg per rat, 24 h fasted, food consumption at thirty minutes after re-feeding): inhibit food intake in a dose-dependent manner
3 | Glucagon | decrease food intake | 
4 | anorectin | decrease food intake | 
5 | calcitonin (CGNLSTCMLGTYTQDFNKFHTFPQTAIGVGAP; ends and bridges not checked; cysteine pairing not given here; UniProt P01258 85-116, looked up) [peptide proposed as affecting eating behavior] | decrease food intake | 
6 | corticotropin releasing hormone (SEEPPISLDLTFHLLREVLEMARAEQLAQQAHSNRKLMEII; ends and bridges not checked; UniProt P06850 154-194, looked up) [peptide proposed as affecting eating behavior] | decrease food intake | 
7 | cyclo-HisPro | decrease food intake | 
8 | enterostatin | decrease food intake | 
9 | apo A-IV: 46,000-Da polypeptide associated with lipoproteins; species of the cited test protein not printed (protein, UniProt P06727 21-396, looked up) Apolipoprotein A-IV: EVSADQVATVMWDYFSQLSNNAKEAVEHLQKSELTQQLNALFQDKLGEVNTYAGDLQKKLVPFATELHERLAKDSEKLKEEIGKELEELRARLLPHANEVSQKIGDNLRELQQRLEPYADQLRTQVSTQAEQLRRQLTPYAQRMERVLRENADSLQASLRPHADELKAKIDQNVEELKGRLTPYADEFKVKIDQTVEELRRSLAPYAQDTQEKLNHQLEGLTFQMKKNAEELKARISASAEELRQRLAPLAEDVRGNLRGNTEGLQKSLAELGGHLDQQVEEFRRRVEPYGENFNKALVQQMEQLRQKLGPHAGDVEGHLSFLEKDLRDKVNSFFSTFKEKESQDKTLSLPELEQQQEQQQEQQQEQVQMLAPLES |  | food intake after central administration (male Sprague Dawley rats [2]; administered centrally): significantly suppressed in a dose-dependent manner; potency administered centrally versus peripherally (male Sprague Dawley rats [2]; central vs peripheral administration): more than 50 fold; food intake [3]: suppresses food intake
10 | human apo A-IV: entire human apolipoprotein A-IV molecule obtained from human serum, purified by preparative polyacrylamide gel electrophoresis (protein, UniProt P06727 21-396, looked up) Apolipoprotein A-IV: EVSADQVATVMWDYFSQLSNNAKEAVEHLQKSELTQQLNALFQDKLGEVNTYAGDLQKKLVPFATELHERLAKDSEKLKEEIGKELEELRARLLPHANEVSQKIGDNLRELQQRLEPYADQLRTQVSTQAEQLRRQLTPYAQRMERVLRENADSLQASLRPHADELKAKIDQNVEELKGRLTPYADEFKVKIDQTVEELRRSLAPYAQDTQEKLNHQLEGLTFQMKKNAEELKARISASAEELRQRLAPLAEDVRGNLRGNTEGLQKSLAELGGHLDQQVEEFRRRVEPYGENFNKALVQQMEQLRQKLGPHAGDVEGHLSFLEKDLRDKVNSFFSTFKEKESQDKTLSLPELEQQQEQQQEQQQEQVQMLAPLES |  | suppression of food intake (male Sprague Dawley rats [1]; third ventricle infusion, 1.5 and 3 μg per rat): effective in suppressing food intake in rats in a dose dependent manner
11 | cholecystokinin (peptide, UniProt P06307 21-115, looked up, Cholecystokinin, peptide proposed as affecting eating behavior) Cholecystokinin: QPVPPADPAGSGLQRAEEAPRRQLRVSQRTDGESRAHLGALLARYIQQARKAPSGRMSIVKNLQNLDPSHRISDRDYMGWMDFGRRSAEEYEYPS | decrease food intake | 
